Data set [1] can be described thus: Pharmacokinetic assay in tumor-bearing mice where HCT-116 cells were transplanted (Test Example 3). The data set is classed as in vivo. To be noted: female, BALB/cAnNCrlj-nu/nu, plasma, tumor-bearing nude mouse; for concentration at 1 h: read-out: Plasma concentrations after oral administration, 1 hour; for concentration at 2 h: read-out: Plasma concentrations after oral administration, 2 hours; for concentration at 6 h: read-out: Plasma concentrations after oral administration, 6 hours; for concentration at 24 h: read-out: Plasma concentrations after oral administration, 24 hours. As to the method:
A 7- to 12-week-old nude mouse (BALB/cAnNCrlj-nu/nu, female, CHARLES RIVER LABORATORIES JAPAN, INC.) received intradermal transplantation of human colorectal cancer-derived HCT-116 cells (ATCC) in an amount of 3×10^6 cells/mouse around the ventral part. […] Blood was collected 1, 2, 6, and 24 hours after administration, and centrifuged to afford plasma samples. Methanol was added to the plasma samples so as to be adjusted to 80% of the final concentration. The samples were centrifuged and filtered to be deproteinized. Then, the test compound was detected and quantitated with LC-MS/MS (API4000, AB SCIEX). In quantitation, a calibration curve was prepared with mouse plasma comprising a known amount of the compound and Bezafibrate was used for the internal standard.
The test in Test Example 3 was performed for the compounds of Examples.
The following table and FIGS. 1 to 5 show temporal changes of the plasma concentrations of compounds after oral administration.

A further data set has as its system HCT-116 cells. Nature of the data set: Drug efficacy assay in tumor-bearing mice where HCT-116 cells were transplanted (Test Example 4). The data set is classed as in vivo. To be noted: HCT-116 tumor-bearing nude mouse, oral, dosage 200 mg/kg, administration period 15 days. The text has this:
The present compound can be used to evaluate the anti-tumor effect thereof according to the following assay. A 4- to 7-week-old nude mouse (BALB/cAnNCrj-nu/nu, female, CHARLES RIVER LABORATORIES JAPAN, INC.) received intradermal transplantation of human colorectal cancer-derived HCT-116 cells (ATCC) in an amount of 3×10^6 cells/mouse around the ventral portion. The engraftment of HCT-116 cells was observed 5 to 14 days after the transplantation, and then each compound suspended in a solvent such as 0.5% methylcellulose solution was orally administrated to the mouse in a dose of 1 to 200 mg/kg one to twice daily. The tumor volume was measured over time after the administration to evaluate the effect for reducing the tumor volume by the administration of each compound. The tumor volume can be calculated from the minor axis and major axis of the tumor measured with a digital caliper (Mitutoyo) according to the following equation: Tumor volume [mm^3]=[…] The tumor volume in the present-compound-administration group was compared with that of the control administration group treated with only a solvent such as 0.5% methylcellulose solution, and T/C value was calculated according the following equation to evaluate the anti-tumor effect of the present compound. […]

A short description of data set [2]: Solid state thermal stability. The data set is classed as physicochemical. To be noted: 70° C., vessel left open; for solid state thermal stability (change of form): stored for 12 weeks. As to the method: The solid state thermal stability was measured for the compounds of Examples 237 and 238 according to the following method. The compounds of Examples 237 and 238 were put into an isothermal vessel set at 70° C., and the samples were stored for 12 weeks under the condition that the vessel was left open. Each elemental analysis result for each compound after 12 weeks is shown as follows.

[3] abbreviates: oral single dose 100 mg/kg, 20% Labrasol.
The mark [4] stands for this setting: oral single dose 150 mg/kg, 0.5% methylcellulose.
Where [5] appears, read: oral single dose 60 mg/kg, 0.5% methylcellulose.

The values that follow come from patent US10898469B2, “Imidazolylamide derivative” (Sumitomo Dainippon Pharma Co., Ltd., priority 2016, dated 2021).

Like-named read-outs stand apart in the source and are kept apart here.

On to `CC(=O)Nc1ccc(/C=C/C(=O)Nc2cn(Cc3cccc(OC(F)(F)F)c3)cn2)cc1` [Example 123], for which, in data set [1] (setting [3]), the concentration at 1 h was 287 ng/mL, the concentration at 2 h was 837 ng/mL, the concentration at 6 h was found to be 79 ng/mL and the concentration at 24 h worked out at 62 ng/mL.

Turning to `CC(=O)Nc1ccc(/C=C/C(=O)Nc2cn(Cc3cccc(C(F)(F)F)c3)cn2)cc1.Cl` [Example 122, (E)-N-(1-(3-trifluoromethyl-benzyl)-1H-imidazol-4-yl)-3-(4-(acetylamino)phenyl)acrylamide], in data set [1] (setting [3]), the concentration at 1 h worked out at 160 ng/mL, the concentration at 2 h turned out to be 642 ng/mL, the concentration at 6 h was found to be 467 ng/mL and the concentration at 24 h came to 221 ng/mL. Moreover, the T/C – broadly, the result in the treated group divided by that in the control group, in per cent – in the data set on HCT-116 cells was 51%.

As to `COc1ccc(C(=O)Nc2cn(Cc3cc(F)c(F)c(F)c3)cn2)cc1OC` [Example 238, 3,4-Dimethoxy-N-[1-(3,4,5-trifluorobenzyl)-1H-imidazol-4-yl]benzamide tosilate], in data set [2] (12 weeks), the “Elemental analysis C (%) measured value after 12 weeks” value was 55.51%, the “Elemental analysis F (%) measured value after 12 weeks” value came to 10.15%, the “Elemental analysis H (%) measured value after 12 weeks” value came to 4.33% and the “Elemental analysis N (%) measured value after 12 weeks” value is 7.48%. Moreover, the “Elemental analysis S (%) measured value after 12 weeks” value in data set [2] (12 weeks) is recorded as 5.62%. Moreover, the “solid state thermal stability (change of form)” value in data set [2] is “not changed”.

For `COc1ccc(/C=C/C(=O)Nc2cn(Cc3cccc(C(F)(F)F)c3)cn2)cc1OCCO` [Example 128], in data set [1] (setting [3]), the concentration at 1 h is 4700 ng/mL, the concentration at 2 h worked out at 610 ng/mL, the concentration at 6 h is 644 ng/mL and the concentration at 24 h stood at 13 ng/mL.

Turning to `N#Cc1ccc(/C=C/C(=O)Nc2cn(Cc3cccc(Cl)c3)cn2)cc1OCCO` [Example 129], in data set [1] (setting [3]), the concentration at 1 h stood at 465 ng/mL, the concentration at 2 h was 309 ng/mL and the concentration at 6 h came out at 271 ng/mL.

Turning to `O=C(/C=C/c1cccnc1)Nc1cn(Cc2cccc(Cl)c2)cn1` [Example 120, (E)-N-(1-(3-chlorobenzyl)-1H-imidazol-4-yl)-3-(pyridin-3-yl)acrylamide], in data set [1] (setting [4]), the concentration at 1 h came to 9220 ng/mL, the concentration at 2 h worked out at 7040 ng/mL, the concentration at 6 h stood at 1200 ng/mL and the concentration at 24 h was found to be 142 ng/mL.

On to `COc1ccc(C(=O)Nc2cn(Cc3cc(F)c(F)c(F)c3)cn2)cc1OC.Cl` [Example 237, 3,4-dimethoxy-N-[1-(3,4,5-trifluorobenzyl)-1H-imidazol-4-yl]benzamide], for which, in data set [2] (12 weeks), the “Elemental analysis C (%) measured value after 12 weeks” value amounted to 54.71%, the “Elemental analysis Cl (%) measured value after 12 weeks” value was 4.00%, the “Elemental analysis F (%) measured value after 12 weeks” value came to 13.74% and the “Elemental analysis H (%) measured value after 12 weeks” value turned out to be 4.31%. The “Elemental analysis N (%) measured value after 12 weeks” value in data set [2] (12 weeks) is listed as 10.28%. The “solid state thermal stability (change of form)” value in data set [2] is listed as “changed to 0.5 hydrochloride 0.5 hydrate”. In data set [1] (setting [5]), the concentration at 1 h was found to be 13200 ng/mL, the concentration at 2 h was 9760 ng/mL, the concentration at 6 h amounted to 3390 ng/mL and the concentration at 24 h came out at 4 ng/mL.
